According to PMC5399635 (The Journal of Pharmacology and Experimental Therapeutics, 2017):

Key:
human κ-opioid receptor = biological target: T1, human κ-opioid receptor (Homo sapiens, UniProt P41145); assay: [35S]GTPγS functional assay, κ-opioid receptor (HEK-293 membranes); type: biochemical
T1 construct: expressed in transfected cells; host or cells: HEK-293 cells
Experimental: These were single experiments conducted across a range of 12 half-log concentrations, from […], with 1 replicate per concentration; experimental conditions were as described for [^35S]GTPγS binding experiments with human recombinant µ-opioid receptors. Functional activity at κ-opioid receptors was also determined in an isolated tissue preparation from the rabbit vas deferens, using methods detailed previously ([Oka et al., 1981]).

[1] = Quantitative whole body autoradiography; type: in vivo, rat; settings: for Concentration of radioactivity, Blood / Concentration of radioactivity, Brain / Concentration of radioactivity, Large intestine wall / Concentration of radioactivity, Liver / Concentration of radioactivity, Spinal cord / Concentration of radioactivity, Fetus (whole) / Concentration of radioactivity, Placenta / Concentration of radioactivity, Uterus: single oral 50 mg/kg
Experimental: Quantitative whole body autoradiography was conducted to track the overall distribution of a single oral dose of radiolabeled naloxegol in adult male and pregnant female rats.
Seven male Lister hooded rats (8–9 weeks old at dosing, body weight 255–290 g each) and 5 time-mated female Sprague-Dawley rats (body weight 347–392 g each) were supplied by Charles River UK Limited (Margate, Kent, UK). All animals were acclimated to the experimental unit before the study (males, 6 days; females, 13 days).
Animals were fasted overnight before dose administration. […] Male rats were administered a mean (±S.D.) of 5.62 (±0.06) MBq/kg; female rats received a mean of 5.60 (±0.03) MBq/kg.
One male rat was humanely euthanized by CO2 narcosis at 0.5, 1, 4, 24, 48, 168, and 504 hours postdose, respectively. One time-mated female rat was humanely euthanized at 0.5, 1, 4, 24, and 48 hours postdose, respectively.
After removal of the whiskers, legs, and tails, the carcasses were frozen by immersion in a mixture of solid CO2 in hexane for approximately 30 minutes and then embedded in a block of carboxymethylcellulose, which was frozen in the same way. After equilibration at approximately –20°C, sagittal sections (30 μm thick) were taken using a whole body cryomicrotome (Leica Biosystems GmbH, Nussloch, Germany). The sections were freeze dried in a chamber of the cryomicrotome before storage at ambient temperature. Carcasses were stored frozen (–20°C) until analysis. After analysis, samples were returned to storage at –20°C. Freeze-dried whole body sections were stored at room temperature.
The radioactivity present in various organs and tissues in whole body sections was determined by QWBA. After exposure, the imaging plates were scanned using a phosphorimage analyzer. Tissues and organs of interest were quantified using AIDA image analysis software (version 4.06; Raytest Isotopenmeßgeräte GmbH, Straubenhardt, Germany). For analysis, representative whole body sections were placed into close contact with phosphor screens and left for a 7-day period. A set of external standards were also exposed on each phosphor screen. These standards were prepared from blood spiked with a serial dilution of a ^14C-labeled reference solution, which was dispensed into holes drilled into a block of carboxymethylcellulose, frozen, and then sectioned in the same way as the animal samples.
After the phosphor screen was scanned, an image of the radioactivity in the sample was stored digitally. For quantitative analysis, six background areas were defined on each stored phosphor screen image. The software automatically calculated the mean background and subsequently subtracted this from all standards and tissues analyzed. A regression coefficient was derived by comparing the response of each standard with the nominal disintegrations per minute per gram over the range of radioactive concentration used and forcing the response curve through the origin. The concentrations of the standards used were in the range of 0.09 to 826.31 μg Eq/g. The response curve was linear over these concentrations and was assumed to be linear to the limit of reliable determination.
Organs or tissues from representative autoradiograms were identified and integrated. The back-calculated tissue concentrations (μg Eq/g) were then determined by the software. The limit of reliable measurement for each storage screen was calculated from the assessment of the mean background of the plate and taken to be three times the S.D. of the mean above background. At the specific activity used in this study, the limit of reliable measurement was in the range of 0.06 to 0.16 μg Eq/g.

[2] = parameters: method as in Bui et al., 2016; settings: quinidine; ref Bui et al., 2016; cited from earlier work
in vitro = settings: human; for Papp A→B at 2 h, 10 μM: Caco-2, pH 7.4, Papp A→B; for Papp B→A at 2 h, 10 μM: Caco-2, pH 7.4, Papp B→A
[3] = In situ rat brain perfusion model; settings: 30 s perfusion, test compound 20 μM, atenolol 50 μM, antipyrine 5 μM, mean ± S.D.
[4] = tested on: morphine-induced inhibition of gastrointestinal transit; assay: Gastrointestinal transit model (charcoal meal), antagonism of morphine
human µ-opioid receptor = human µ-opioid receptor (Homo sapiens, UniProt P35372); assay: [35S]GTPγS binding, Schild-type antagonism of morphine (CHO-K1 membranes); settings: versus morphine; pooled 3 experiments
[5] = no P-gp inhibitor, mean of 3 experiments

T1 sequence (P41145 whole entry): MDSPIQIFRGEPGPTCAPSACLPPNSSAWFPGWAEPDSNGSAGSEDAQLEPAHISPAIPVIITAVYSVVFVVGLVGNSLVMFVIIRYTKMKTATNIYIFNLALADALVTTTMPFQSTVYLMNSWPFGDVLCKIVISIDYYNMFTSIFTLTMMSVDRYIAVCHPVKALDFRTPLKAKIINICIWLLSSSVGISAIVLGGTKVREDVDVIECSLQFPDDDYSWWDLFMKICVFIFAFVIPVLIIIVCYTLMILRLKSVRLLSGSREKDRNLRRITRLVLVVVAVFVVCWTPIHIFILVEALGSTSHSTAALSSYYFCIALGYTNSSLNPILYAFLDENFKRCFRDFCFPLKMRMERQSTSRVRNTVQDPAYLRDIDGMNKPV
Sequence of human µ-opioid receptor (P35372 whole entry): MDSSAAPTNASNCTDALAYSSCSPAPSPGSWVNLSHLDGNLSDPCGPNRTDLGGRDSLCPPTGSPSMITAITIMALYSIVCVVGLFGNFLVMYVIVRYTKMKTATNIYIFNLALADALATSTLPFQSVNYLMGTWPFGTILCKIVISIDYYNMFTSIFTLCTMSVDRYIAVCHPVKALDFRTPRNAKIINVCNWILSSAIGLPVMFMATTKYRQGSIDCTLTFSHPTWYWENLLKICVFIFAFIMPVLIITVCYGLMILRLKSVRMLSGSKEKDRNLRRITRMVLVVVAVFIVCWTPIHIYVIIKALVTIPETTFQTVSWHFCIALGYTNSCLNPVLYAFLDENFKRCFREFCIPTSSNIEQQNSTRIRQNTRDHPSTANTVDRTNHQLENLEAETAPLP

SMILES: C=CCN1CC[C@]23c4c5ccc(O)c4O[C@H]2[C@@H](OCCOCCOCCOCCOCCOCCOCCOC)CC[C@@]3(O)[C@H]1C5 [Naloxegol, naloxegol]
- IC50 (human κ-opioid receptor; U69593 100 nM, read-out: IC50 (inhibition of response to U69593)): 37 nM
- inhibition at 100 µM (human κ-opioid receptor; at 100 µM, read-out: maximal inhibition of response to U69593): 62%
- EC50 (human κ-opioid receptor; read-out: EC50 (agonism)): 47 nM
- Emax (human κ-opioid receptor; read-out: maximal effect, agonism relative to U69593): 39%
- Concentration of radioactivity, Blood ([1]; male rat, 0.5 h): 3.03 μg Eq/g
- Concentration of radioactivity, Brain ([1]; male rat, 0.5 h): BLQ
- Concentration of radioactivity, Large intestine wall ([1]; male rat, 0.5 h): 8.83 μg Eq/g
- Concentration of radioactivity, Liver ([1]; male rat, 0.5 h): 43.40 μg Eq/g
- Concentration of radioactivity, Spinal cord ([1]; male rat, 0.5 h): 0.06 μg Eq/g
- Concentration of radioactivity, Blood ([1]; male rat, 1 h): 4.11 μg Eq/g
- Concentration of radioactivity, Brain ([1]; male rat, 1 h): 0.21 μg Eq/g
- Concentration of radioactivity, Large intestine wall ([1]; male rat, 1 h): 14.09 μg Eq/g
- Concentration of radioactivity, Liver ([1]; male rat, 1 h): 66.49 μg Eq/g
- Concentration of radioactivity, Spinal cord ([1]; male rat, 1 h): 0.15 μg Eq/g
- Concentration of radioactivity, Blood ([1]; male rat, 4 h): 2.14 μg Eq/g
- Concentration of radioactivity, Brain ([1]; male rat, 4 h): 0.14 μg Eq/g
- Concentration of radioactivity, Large intestine wall ([1]; male rat, 4 h): 12.09 μg Eq/g
- Concentration of radioactivity, Liver ([1]; male rat, 4 h): 58.74 μg Eq/g
- Concentration of radioactivity, Liver ([1]; male rat, 24 h): 4.61 μg Eq/g
- Concentration of radioactivity, Liver ([1]; male rat, 48 h): 7.74 μg Eq/g
- Concentration of radioactivity, Liver ([1]; male rat, 168 h): 1.03 μg Eq/g
- Concentration of radioactivity, Blood ([1]; pregnant female rat, 0.5 h): 12.38 μg Eq/g
- Concentration of radioactivity, Brain ([1]; pregnant female rat, 0.5 h): 0.34 μg Eq/g
- Concentration of radioactivity, Fetus (whole) ([1]; pregnant female rat, 0.5 h): 3.10 μg Eq/g
- Concentration of radioactivity, Large intestine wall ([1]; pregnant female rat, 0.5 h): 23.61 μg Eq/g
- Concentration of radioactivity, Liver ([1]; pregnant female rat, 0.5 h): 68.67 μg Eq/g
- Concentration of radioactivity, Placenta ([1]; pregnant female rat, 0.5 h): 21.09 μg Eq/g
- Concentration of radioactivity, Spinal cord ([1]; pregnant female rat, 0.5 h): 0.24 μg Eq/g
- Concentration of radioactivity, Uterus ([1]; pregnant female rat, 0.5 h): 31.19 μg Eq/g
- Concentration of radioactivity, Blood ([1]; pregnant female rat, 1 h): 7.80 μg Eq/g
- Concentration of radioactivity, Brain ([1]; pregnant female rat, 1 h): 0.15 μg Eq/g
- Concentration of radioactivity, Fetus (whole) ([1]; pregnant female rat, 1 h): 1.99 μg Eq/g
- Concentration of radioactivity, Large intestine wall ([1]; pregnant female rat, 1 h): 25.20 μg Eq/g
- Concentration of radioactivity, Liver ([1]; pregnant female rat, 1 h): 56.01 μg Eq/g
- Concentration of radioactivity, Placenta ([1]; pregnant female rat, 1 h): 12.89 μg Eq/g
- Concentration of radioactivity, Spinal cord ([1]; pregnant female rat, 1 h): 0.10 μg Eq/g
- Concentration of radioactivity, Uterus ([1]; pregnant female rat, 1 h): 82.21 μg Eq/g
- Concentration of radioactivity, Blood ([1]; pregnant female rat, 4 h): 6.92 μg Eq/g
- Concentration of radioactivity, Brain ([1]; pregnant female rat, 4 h): 0.28 μg Eq/g
- Concentration of radioactivity, Fetus (whole) ([1]; pregnant female rat, 4 h): 2.23 μg Eq/g
- Concentration of radioactivity, Large intestine wall ([1]; pregnant female rat, 4 h): 37.45 μg Eq/g
- Concentration of radioactivity, Liver ([1]; pregnant female rat, 4 h): 58.78 μg Eq/g
- Concentration of radioactivity, Placenta ([1]; pregnant female rat, 4 h): 14.78 μg Eq/g
- Concentration of radioactivity, Spinal cord ([1]; pregnant female rat, 4 h): 0.12 μg Eq/g
- Concentration of radioactivity, Uterus ([1]; pregnant female rat, 4 h): 185.03 μg Eq/g
- Concentration of radioactivity, Fetus (whole) ([1]; pregnant female rat, 24 h): 0.17 μg Eq/g
- Concentration of radioactivity, Liver ([1]; pregnant female rat, 24 h): 4.42 μg Eq/g
- Concentration of radioactivity, Placenta ([1]; pregnant female rat, 24 h): 0.16 μg Eq/g
- Concentration of radioactivity, Uterus ([1]; pregnant female rat, 24 h): 19.04 μg Eq/g
- Concentration of radioactivity, Fetus (whole) ([1]; pregnant female rat, 48 h): BLQ
- Concentration of radioactivity, Liver ([1]; pregnant female rat, 48 h): 2.68 μg Eq/g
- Concentration of radioactivity, Placenta ([1]; pregnant female rat, 48 h): BLQ
- Concentration of radioactivity, Uterus ([1]; pregnant female rat, 48 h): 4.00 μg Eq/g
- time to elimination of radioactivity from most tissues ([1]; rat, naloxegol-derived radioactivity): ≤ 24 h
- CNS distribution when coadministered with a strong P-gp inhibitor [2]: unaffected
- Papp A→B at 2 h, 10 μM (in vitro; Cyclosporin A): 1.8 ×10⁻⁶ cm/s
- Papp A→B at 2 h, 10 μM (in vitro; Elacridar, 0.5 μM): 2.3 ×10⁻⁶ cm/s
- Papp A→B at 2 h, 10 μM (in vitro; Verapamil, 100 μM): 1.3 ×10⁻⁶ cm/s
- Papp A→B at 2 h, 10 μM (in vitro; [5]): 0.7 ×10⁻⁶ cm/s
- Papp B→A at 2 h, 10 μM (in vitro; Cyclosporin A): 1.8 ×10⁻⁶ cm/s
- Papp B→A at 2 h, 10 μM (in vitro; Elacridar, 0.5 μM): 2.5 ×10⁻⁶ cm/s
- Papp B→A at 2 h, 10 μM (in vitro; Verapamil, 100 μM): 1.7 ×10⁻⁶ cm/s
- Papp B→A at 2 h, 10 μM (in vitro; [5]): 8.4 ×10⁻⁶ cm/s
- Brain Uptake [3]: 4.1 ± 1.4 pmol/g brain/s
- oral dose that completely reversed the effect of morphine ([4]; GI transit assay, rat): 90 mg/kg
- ED50 ([4]; Rattus norvegicus, read-out: ED50, antagonism of morphine in GI transit): 23.1 mg/kg
- times less potent than naloxone ([4]; comparison of ED50 values): approximately 33 fold
- separation in PNS versus CNS effect ([4]; rat, GI transit versus hot plate): twofold
- Schild slope (human µ-opioid receptor): –1.03
